{"source": "patent US10316293B2", "about": "“Methods for producing single pluripotent stem cells and differentiation thereof” (LifeScan, Inc., priority 2007, dated 2019)", "molecules": {"B1": {"name": "Wnt3a: Wnt3a (R&D Systems), 10 ng/ml in the definitive endoderm protocol (protein, UniProt P56704 19-352, looked up)", "Protein Wnt-3a": "SYPIWWSLAVGPQYSSLGSQPILCASIPGLVPKQLRFCRNYVEIMPSVAEGIKIGIQECQHQFRGRRWNCTTVHDSLAIFGPVLDKATRESAFVHAIASAGVAFAVTRSCAEGTAAICGCSSRHQGSPGKGWKWGGCSEDIEFGGMVSREFADARENRPDARSAMNRHNNEAGRQAIASHMHLKCKCHGLSGSCEVKTCWWSQPDFRAIGDFLKDKYDSASEMVVEKHRESRGWVETLRPRYTYFKVPTERDLVYYEASPNFCEPNPETGSFGTRDRTCNVSSHGIDGCDLLCCGRGHNARAERRREKCRCVFHWCCYVSCQECTRVYDVHTCK"}}, "key": {"[1]": {"test_system": "Human embryonic stem cells H9p33", "test": "Cell releasing enzyme panel: passage of hES cell clusters as single cells, recovered cells counted with trypan blue", "type": "cell-based", "details": "for CELL NUMBER: recovered cells/well after three days on MATRIGEL, reseeded at 200,000 cells/well (collagenase: clusters, 30 minute incubation, 1:5 dilution)", "experimental": "Human embryonic stem cells H9p33 cells grown in clusters in a 6 well dish were incubated with the following enzymes; TrypLE™ Express (stable tryspin-like enzyme (Invitrogen (Carlsbad, Calif.)), TrypLE™ Select (animal origin-free trypsin-like enzyme Invitrogen (Carlsbad, Calif.)), trypsin/EDTA (0.05%), or trypsin (0.25%), for two minutes at 36° C. All enzymes released the cells within two minutes except trypsin. Release with trypsin was achieved after five minutes at 36° C. Cells were reseeded at 200,000 cells/well into a 6 well plate coated with MATRIGEL™ and allowed to expand for three days. Human embryonic stem cells were also passed as clusters with collagenase (30 minute incubation) and reseeded at a 1:5 dilution on MATRIGEL™-coated wells, similar to the counted TrypLE™ Express cells. After three days, the hESC were released by a five minute incubation with TrypLE™ Express. Cells were incubated with 0.01% trypan blue and then counted (Table 1). Cell viability immediately after release was greater than 98% for all enzymes tested. Passage of human embryonic stem cells with collagenase is the standard passaging method. […] TrypLE™ Select and TrypLE™ Express were the best enzymes evaluated and were further tested in a time course experiment, Example 3."}, "H1 passage 37 hES cells": {"test_system": "H1 passage 37 hES cells", "test": "Passage of hES cells directly from MEF feeders to MATRIGEL with enzymes", "type": "cell-based, human", "experimental": "In an effort to move to a feeder free culture of hES cells from a feeder based culture, H1 passage 37 hES cells that had been supported by a MEF feeder layer in hESC media and grown for 5 days on 10 cm^2 wells of 6 well plates were passaged. The cells were passaged with either TrypLE™, Accutase™, or 1 mg/ml of collagenase.\nBefore adding enzyme to the cells, the spent media was aspirated, 1 ml PBS (no Ca^2+, or Mg^2+) was added to each well, was aspirated again, and then 1 ml of room temperature enzyme (collagenase, Accutase™, or TrypLE™) was added. Accutase™ or TrypLE™ were used at stock concentration after reaching room temperature. Collagenase was removed from −80° C. freezer, thawed, mixed with 9 ml DMEM/F12, sterile filtered, and allowed to reach room temperature before use.\nThe cells were incubated in enzyme at 37° C. for 10 min. […] One ml of 2% Probumin in DMEM-F12 was added to each well and the combined total volume in the well was transferred to a 50 ml sterile conical tube, making sure to lift and suspend as many cells as possible.\nThe cells were centrifuged for 5 minutes at 200×g followed by an additional wash with 2% Probumin and centrifugation for 5 minutes at 200×g. Cell were then resuspended in MEF conditioned media and plated at a 1 to 3.5 ratio onto MATRIGEL™ (1:30 dilution in DMEM) coated T25 flasks, and placed in a 37° C., 5% CO2, humidified incubator.\nCell number was calculated by counting with an Improved Neubauer hemocytomer. […] Given a 1 to 3.5 split ratio, we plated the Accutase treated cells at a seeding density of 2.72 million cells/T25flask or 108,000 cells/cm^2, the TrypLE™ treated cells at a seeding density 2.65 million cells/T25flask or 105,000 cells/cm^2. It is assume that Collagenase treated wells were seeded at a similar density (105,000 to 108,000 cells/cm^2), since there was no appreciable difference in hES density from well to well before enzyme treatment. An additional flask was plated with Collagenase lifted cells for counting purposes at the next passage.\nCells were maintained for 4 days with daily changes of MEF conditioned media supplemented with […] of bFGF. After 4 days in culture the cultures were confluent, and the single cell treated hES cells formed monolayers of hES cells with occasional pockets of fibroblasts, while the cluster passaged hES cells formed large colony style clusters of hES cells (FIG. 13). These cells were then passaged again.\nAs previously described, the cells were incubated in enzyme at 37° C. for 10 min. […] The additional collagenase flask was lifted with Accutase™. The single cells were then with an Improved Neubauer hemocytometer.\nTwo ml of 2% Probumin in DMEM-F12 was then added to each flask after enzyme incubation, the total volume (˜4 ml) from the flask was pipetted up and down 5-10 times in order to suspend as many cells as possible. The suspension was then transferred to a 50 ml conical tube and centrifuged for 5 min at 200×g. Cells were then resuspended in MEF conditioned media supplemented with […] of bFGF, and then plated to T25 flasks precoated with 1:30 MATRIGEL™ at a ratio of 1:4.\nGiven that the cells were passaged at a 1:4 ratio, the cells were plated at a density of 58,000 cell/cm^2 for Accutase™ passage, 51,000 cell/cm^2 for TrypLE™ passage, and 35,000 cell/cm^2.\nCells were then grown for an additional 6 days, with daily media change of MEF conditioned media supplemented with 16 ng/ml of bFGF."}, "hES H9scp18": {"test_system": "hES H9scp18", "test": "Definitive endoderm differentiation of hES single cells in 96 well plates, IN Cell 1000 cell number and Sox17 staining", "type": "cell-based, human", "details": "10 ng/ml Wnt3a, with 100 ng/ml Activin A, 0.5% FBS, two days; 40 wells", "experimental": "hES H9scp18 were seeded into Packard View 96-well plates (Perkin-Elmer) coated with 1:30 growth factor reduced MATRIGEL™ at a density of 14,000 cells/cm^2. The cells were grown for three to four days in MEF conditioned medium and then treated using a DE differentiation protocol. A subset of 40 wells was treated with a standard protocol (10 ng/ml Wnt3a, 100 ng/ml Activin A, and 0.5% FBS in DMEM:F12 for two days). A second subset of 40 wells was treated with the GSK3b inhibitor IX (100 nM; EMD Chemicals, La Jolla, Calif.) instead of Wnt3a. This was followed by treatment for both subsets for three days with 100 ng/ml Activin A and 2% FBS in DMEM:F12. At the end of culture, cells were fixed with 4% paraformaldehyde at room temperature for 20 minutes, washed three times with PBS, and stored in 100 ul PBS overnight. Cells were permeabilized with 0.5% Triton X-100 (Sigma-Aldrich), either at room temperature for 20 minutes or at 4° C. for five minutes, then washed three times with PBS and blocked with 4% chicken serum (Invitrogen-Gibco, Carlesbad, Calif.) in PBS for 30 minutes at room temperature. […]"}, "[2]": {"details": "T25 flask on 1:30 MATRIGEL, MEF conditioned media"}}}
{"molecule": "Collagenase", "values": [{"measurement": "CELL NUMBER", "setting": "[1]", "result": "3.5 10^5"}, {"measurement": "density after four days in culture", "setting": "H1 passage 37 hES cells; [2]", "result": "138,000 cell/cm^2"}, {"measurement": "density after four days in culture, cells total", "setting": "H1 passage 37 hES cells; [2]", "result": 3.45, "unit": "million cells total"}, {"measurement": "growth and morphology after two passages", "setting": "H1 passage 37 hES cells; additional 6 days on MATRIGEL after second passage", "result": "form large colonies of dense and homogeneous cells"}, {"measurement": "lifting of cells from the dish", "setting": "H1 passage 37 hES cells; first passage from MEF feeders, 10 min at 37° C.", "result": "did not lift cells"}, {"measurement": "density of lifted cells", "setting": "H1 passage 37 hES cells; first passage from MEF feeders, hemocytometer count", "result": "not countable by hemocytometer"}, {"measurement": "lifting of cells from plastic and MATRIGEL", "setting": "H1 passage 37 hES cells; second passage, 10-minute treatment at 37° C.", "result": "did not lift cells"}]}
{"molecule": "TRYPSIN", "values": [{"measurement": "time to release the cells", "setting": "[1]; 36° C.", "result": "five"}, {"measurement": "recovered cell counts / maintaining cell attachment/growth (in words)", "setting": "[1]; after three days culture, compared with collagenase", "result": "significantly less effective at maintaining cell attachment/growth"}, {"measurement": "CELL NUMBER", "setting": "[1]", "result": "0.1 10^5"}]}
{"molecule": "B1", "values": [{"measurement": "number of cell nuclei per well", "setting": "hES H9scp18", "result": "highest number of cell nuclei per well with little variability between wells"}]}
